Read-outs that look alike come from different tables or passages of the source.
Tests used:
[1] = tested on: Pichia etchellsii anthocyanase (Pantp, enzyme-5), native; test: Km determination via β-glucosidase activity, anthocyanase of P. etchellsii (enzyme-5); assay type: biochemical; settings: native enzyme-5
Protocol: The biochemical examinations of the anthocyanase (enzyme-5) of P. etchellsii were performed analogously to the anthocyanases examined up to then.
The temperature optimum was 50° C. and the optimal pH value was 6.5.

[2] = tested on: Debaryomyces vanrijiae anthocyanase (DVantp, enzyme-4), native; test: Km determination via β-glucosidase activity, anthocyanase of D. vanrijiae (enzyme-4); assay type: biochemical; settings: read-out: Km value for cellobiose; established data
From the text: Moreover, the molecular weight and the isoelectric point were taken from literature (A. Belancic et al., J. Agric. Food Chem., 51: 1453-1459).

[3] = tested on: Debaryomyces hansenii anthocyanase (Dantp, enzyme-2), native; test: Km determination via β-glucosidase activity, anthocyanase of D. hansenii (enzyme-2); assay type: biochemical; settings: read-out: Km value for cellobiose; native enzyme-2
Protocol: The biochemical examinations of the anthocyanase (enzyme-2) of D. hansenii were performed corresponding to the anthocyanases examined up to then. Thus, their biochemical parameters were determined by means of β-glucosidase activity determinations. […] D. hansenii anthocyanase has a temperature optimum of 55° C. and a pH optimum of 5.0. […] Furthermore, with this yeast, too, one started to establish the substrate spectrum.

[4] = substrate: OC[C@H]1O[C@@H](O[C@H]2[C@H](O)[C@@H](O)C(O)O[C@@H]2CO)[C@H](O)[C@@H](O)[C@@H]1O; test: Km determination, recombinant anthocyanase (r-enzyme-1) of C. molischiana; assay type: biochemical, Candida molischiana; settings: other: recombinant anthocyanase (r-enzyme-1); pH 5.5
Protocol: (§1) A. adeninivorans G1211/pAL-ALEU2m-BGLN was tested for the presence of recombinant anthocyanase (Bglnp-r-enz-1). For doing so, the recombinant enzyme was isolated, purified and biochemically characterized.
(§2) The recombinant anthocyanase has parameters very similar to those of C. molischiana enzyme (FIG. 9 and FIG. 10).
(§3) The temperature optimum was established at 40° C. The temperature range in which this anthocyanase was still has more than 80% activity was between 37.5° C. and 50° C. The optimum pH value was 4.0. However, the recombinant anthocyanase has an essentially broader pH tolerance range than the anthocyanase synthesized in C. molischiana. Thus, its activity was still 80% with a pH value of 5.5.

[5] = substrate: O=[N+]([O-])c1ccc(O[C@@H]2O[C@H](CO)[C@@H](O)[C@H](O)[C@H]2O)cc1; test: as above; assay type: biochemical, Candida molischiana; settings: other: recombinant anthocyanase (r-enzyme-1); pH 5.5
Protocol: as §1, §2, §3

O=[N+]([O-])c1ccc(O[C@@H]2O[C@H](CO)[C@@H](O)[C@H](O)[C@H]2O)cc1 [pNPG]
Km ([1]; read-out: Km value for pNPG): 59.7 mM

OC[C@H]1O[C@@H](O[C@H]2[C@H](O)[C@@H](O)C(O)O[C@@H]2CO)[C@H](O)[C@@H](O)[C@@H]1O (stereo partly drawn) [cellobiose]
Km ([1]; read-out: Km value for cellobiose): 84.5 mM | Km [2]: 8.3 mM | Km [3]: 16.3 mM

B1: Candida molischiana anthocyanase (anthocyanin-β-glucosidase), recombinant, produced in Arxula adeninivorans (r-enzyme-1, rBglnp) (Kuraishia capsulata) (protein)
chain: KNISKAEMENLEHWWSYGRSDPVYPSPEISGLGDWQFAYQRAREIVALMTNEEKTNLTFGSSGDTGCSGMISDVPDVDFPGLCLQDAGNGVRGTDMVNAYASGLHVGASWNRQLAYDRAVYMGAEFRHKGVNVLLGPVVGPIGRVATGGRNWEGFTNDPYLAGALVYETTKGIQENVIACTKHFIGNEQETNRNPSGTYNQSVSANIDDKTMHELYLWPFQDSVRAGLGSIMGSYNRVNNSYACKNSKVLNGLLKSELGFQGFVVSDWGGQHTGIASANAGLDMAMPSSTYWEEGLIEAVKNGTVDQSRLDDMATRIIAAWYKYARLDDPGFGMPVSLAEDHELVDARDPAAASTIFQGAVEGHVLVKNENALPLKKPKYISLFGYDGVSTDVNTVGGGFSFFSFDVKAIENKTLISGGGSGTNTPSYVDAPFNAFVAKAREDNTFLSWDFTSAEPVANPASDACIDFINAAASEGYDRPNLADKYSDKLVEAVASQCSNTIVVIHNAGIRLVDNWIEHENVTGVILAHLPGQDTGTSLIEVLYGNQSPSGRLPYTVAKKASDYGGLLWPTEPEGDLDLYFPQSNFTEGVYIDYKYFIQKNITPRYEFGYGLTYTTFDYSELEVDAITNQSYLPPDCTIEEGGAKSLWDIVATVKFTVTNTGDVAAAEVPQLYVGIPNGPPKVLRGFDKKLIHPGQSEEFVFELTRRDLSTWDVVAQNWGLQAGTYQFYVGRSVFDVPLTSALVFTN
Km [4]: 58.27 mM | Km [5]: 5.56 mM
